“And” between values parts separate entries of the source, which are not always exact repeats. Equal values may be shown once. Read-outs that look alike come from different tables or passages of the source.
Experiments:
[1] = target: VCCβ-prism (isolated β-prism domain of Vibrio cholerae cytolysin) (Vibrio cholerae serotype O1, UniProt P09545); assay: biochemical; assay type: binding
D617K mutant of VCC = assay type: binding, Vibrio cholerae
[2] = test system: rabbit whole blood lysis by wild-type VCC
VCCβ-prism = VCCβ-prism (Vibrio cholerae serotype O1, UniProt P09545); assay type: binding
VCC = conditions: cited from earlier work
VCCWT = assay type: binding, Vibrio cholerae

Chain of VCCβ-prism (isolated β-prism domain of Vibrio cholerae cytolysin) (P09545 611-741 limits assumed): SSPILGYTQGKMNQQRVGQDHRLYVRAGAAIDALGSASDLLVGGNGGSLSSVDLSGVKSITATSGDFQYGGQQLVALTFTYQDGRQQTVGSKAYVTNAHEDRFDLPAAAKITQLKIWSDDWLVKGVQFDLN
Chain of VCCβ-prism (P09545 611-741 limits assumed): as above

Which “KD of maltose relative to KD of Me-α-mannose” value [1] does the source give for `OC[C@H]1O[C@H](O[C@H]2[C@H](O)[C@@H](O)C(O)O[C@@H]2CO)[C@H](O)[C@@H](O)[C@@H]1O` (mixture of isomers) [Maltose, glucose-α1,4-glucose] here?
Its value is 10 fold.

And the Kd [1]?
The Kd was 30.9 ± 3.17 mM.

What about the ΔG [1] of the same compound?
Its ΔG is -2.09 kcal/mol.

With `C[C@H](O)[C@@H](O)[C@@H](O)[C@H](O)C=O` [Fucose, L-fucose] as the compound, how does the “Binding detected by ITC” value [1] read?
The value was “did not exhibit measurable binding”.

With `OC[C@H]1OC(O)[C@H](O)[C@@H](O)[C@@H]1O` (stereo partly drawn) [Glucose] as the compound, how does the Kd [1] read?
Its Kd is 12 ± 0.6 mM.

What about the ΔG [1] of the same compound?
Its ΔG is -2.679 kcal/mol.

For `OC[C@H]1OC(O)[C@@H](O)[C@@H](O)[C@@H]1O` (stereo partly drawn) [Mannose, D-mannose], which Kd [1] is on record?
Its Kd is 14.8 ± 1.18 mM.

And the ΔG [1]?
The ΔG was -2.456 kcal/mol.

For `CO[C@H]1O[C@H](CO)[C@H](O)[C@H](O)[C@H]1O` [Me-α-Galactose, Me-α-D-galactose], which “Binding detected by ITC” value [1] is on record?
Its value is “did not bind”.

Which results are given for `COC1OC(CO)C(O)C(O)C1O` [Me-α-Glucose, Me-α-D-glucose]?
Kd [1]: 7.1 mM and 7.09 mM; ΔG [1]: -2.944 kcal/mol

Which “Increase in affinity of Me-α-D-mannose over D-mannose” value [1] does the source give for `COC1OC(CO)C(O)C(O)C1O` (stereo not drawn) [Me-α-Mannose, methyl-α-mannose] here?
The value was “roughly five-fold increase”.

What about the Kd [1] of the same compound?
The Kd was 3.24 ± 0.1 mM.

What about the ΔG [1] of the same compound?
Its ΔG is -3.424 kcal/mol.

What about the “Binding detected by ITC” value (D617K mutant of VCC) of the same compound?
The value was “could not detect measurable binding”.

What about the “Effect on half-life (t1/2) of rabbit blood hemolysis by VCC” value [2] of the same compound?
The value was “no effect”.

For `CO[C@@H]1O[C@H](CO)[C@@H](O)[C@H](O)[C@@H]1O` [Me-β-D-mannose], which “Binding detected by ITC” value [1] is on record?
Its value is “loss of binding”.

For `COC1OC(CO)C(O)C(O)C1O` [Me-β-Galactose, Me-β-D-galactose], which “Binding detected by ITC” value [1] is on record?
Its value is “did not bind”.

With `COC1OC(CO)C(O)C(O)C1O` [Me-β-Glucose, Me-β-D-glucose] as the compound, how does the “Binding detected by ITC” value [1] read?
The value was “did not bind”.

For `CC(=O)N[C@@H]1[C@@H](O)[C@H](O)[C@@H](CO)O[C@H]1O` [N-acetylglucosamine, N-acetyl-D-glucosamine], which “Binding detected by ITC” value [1] is on record?
Its value is “did not exhibit measurable binding”.

Which “Binding detected by ITC” value [1] does the source give for `O=C[C@H](O)[C@@H](O)[C@H](O[C@@H]1O[C@H](CO)[C@@H](O)[C@H](O)[C@H]1O)[C@H](O)CO` [cellobiose, glucose-β1,4-glucose] here?
Its value is “did not bind”.

Which results are given for “GlcNAcβ1-2Manα1-6(GlcNAcβ1-2Manα1-3)Manβ1-4GlcNAcβ1-4GlcNAc [NGA2]”?
association rate ka (VCCβ-prism): 37,000 M^−1s^−1; dissociation rate kd (VCCβ-prism): 0.040 s⁻¹; Kd (VCCβ-prism; read-out: Affinity (approximate summary)): ~0.0001 mM; Kd (VCCβ-prism; read-out: KD (equilibrium analysis)): 0.000183 mM; Kd (VCCβ-prism; read-out: KD (kinetic fit)): 0.000108 mM

With fetuin as the compound, how does the “Inhibition of VCC activity” value (VCC) read?
The value was “inhibited”.

For galactose-α-1,4-galactose [galabiose], which “Average fluorescence of VCC binding to glycan” value (from here on “Average fluorescence”) (VCCWT) is on record?
Its value is no more than 100 RFUs.

For “galactose-β-1,4(fucose-α-1,3)N-acetyl glucosamine [Lewis X]”, which “Average fluorescence” value (VCCWT) is on record?
The value was no more than 100 RFUs.

Which “Average fluorescence” value (VCCWT) does the source give for lacto-N-biose here?
The value was no more than 100 RFUs.

From publication PMC3578121 (Journal of molecular biology, 2012)
